One test deals with Mer tyrosine kinase (Homo sapiens (Human), UniProt Q12866). In words: Evaluation of activity against Mer tyrosine kinase. In kind it is biochemical.
The next test deals with Tyro3 tyrosine kinase (Homo sapiens (Human), UniProt Q06418). The test can be described thus: Evaluation of activity against Tyro3 tyrosine kinase. In kind it is biochemical.

This passage reports IC50 results from patent US11001586B2, “Alkyl pyrrolopyrimidine analogs and methods of making and using same” (The University of North Carolina at Chapel Hill, priority 2016, dated 2021).

Chain of Mer tyrosine kinase (Q12866 21-999): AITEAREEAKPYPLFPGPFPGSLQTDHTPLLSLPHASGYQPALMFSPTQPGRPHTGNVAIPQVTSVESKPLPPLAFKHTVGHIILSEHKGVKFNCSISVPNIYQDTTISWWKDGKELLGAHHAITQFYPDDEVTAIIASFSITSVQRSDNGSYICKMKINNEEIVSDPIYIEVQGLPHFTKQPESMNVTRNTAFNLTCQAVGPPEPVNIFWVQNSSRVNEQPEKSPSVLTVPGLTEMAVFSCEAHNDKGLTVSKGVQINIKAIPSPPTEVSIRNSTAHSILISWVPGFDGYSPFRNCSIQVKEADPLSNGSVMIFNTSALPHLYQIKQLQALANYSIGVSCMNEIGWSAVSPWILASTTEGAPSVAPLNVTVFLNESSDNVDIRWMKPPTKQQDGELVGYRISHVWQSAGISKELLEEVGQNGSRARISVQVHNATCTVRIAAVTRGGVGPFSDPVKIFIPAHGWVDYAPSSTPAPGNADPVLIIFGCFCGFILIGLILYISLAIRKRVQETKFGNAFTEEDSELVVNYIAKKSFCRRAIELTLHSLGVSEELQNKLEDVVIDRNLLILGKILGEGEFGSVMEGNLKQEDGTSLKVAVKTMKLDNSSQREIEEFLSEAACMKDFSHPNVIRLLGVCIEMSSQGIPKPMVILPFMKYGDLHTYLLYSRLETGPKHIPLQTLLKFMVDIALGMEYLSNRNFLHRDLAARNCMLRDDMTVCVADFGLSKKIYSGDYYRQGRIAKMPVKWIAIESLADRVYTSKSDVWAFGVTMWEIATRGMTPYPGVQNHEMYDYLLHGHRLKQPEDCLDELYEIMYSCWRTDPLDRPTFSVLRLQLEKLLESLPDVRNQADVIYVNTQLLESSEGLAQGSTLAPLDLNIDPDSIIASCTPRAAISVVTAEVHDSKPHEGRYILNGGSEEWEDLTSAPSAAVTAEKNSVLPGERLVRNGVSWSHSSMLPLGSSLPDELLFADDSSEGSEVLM
Chain of Tyro3 tyrosine kinase (Q06418 41-890): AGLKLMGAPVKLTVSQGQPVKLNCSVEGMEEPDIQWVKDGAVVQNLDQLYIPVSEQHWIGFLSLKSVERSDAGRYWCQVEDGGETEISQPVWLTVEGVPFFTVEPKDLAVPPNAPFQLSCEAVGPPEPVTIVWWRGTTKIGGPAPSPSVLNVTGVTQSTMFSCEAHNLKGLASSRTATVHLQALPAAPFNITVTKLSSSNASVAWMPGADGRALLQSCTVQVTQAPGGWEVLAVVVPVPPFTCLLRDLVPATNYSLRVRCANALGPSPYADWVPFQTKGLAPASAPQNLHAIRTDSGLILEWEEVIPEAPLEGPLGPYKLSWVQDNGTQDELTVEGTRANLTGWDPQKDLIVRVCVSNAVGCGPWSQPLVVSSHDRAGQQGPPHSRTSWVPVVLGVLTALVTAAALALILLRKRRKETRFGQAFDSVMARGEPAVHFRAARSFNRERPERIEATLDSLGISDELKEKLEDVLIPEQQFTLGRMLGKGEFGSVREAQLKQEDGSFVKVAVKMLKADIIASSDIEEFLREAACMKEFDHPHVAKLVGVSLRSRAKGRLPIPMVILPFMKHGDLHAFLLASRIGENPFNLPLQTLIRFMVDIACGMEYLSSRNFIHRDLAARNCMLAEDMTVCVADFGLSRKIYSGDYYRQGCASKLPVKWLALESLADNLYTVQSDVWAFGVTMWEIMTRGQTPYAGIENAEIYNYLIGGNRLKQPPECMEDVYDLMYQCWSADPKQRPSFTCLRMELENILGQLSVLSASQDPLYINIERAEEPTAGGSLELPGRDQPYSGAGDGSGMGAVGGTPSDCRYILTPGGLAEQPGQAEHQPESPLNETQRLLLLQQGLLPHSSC

In general, IC50 refers to the concentration needed to halve the response being measured. Read a high IC50 as lower potency. For the compound `C[C@H](Nc1ncc2c(C3CCN(CC4CCCCC4)CC3)cn([C@H]3CC[C@H](O)CC3)c2n1)c1ccccc1` [compound 92, (1S,4R)-4-(5-(1-(cyclohexylmethyl)piperidin-4-yl)-2-(((S)-1-phenylethyl)amino)-7H-pyrrolo[2,3-d]pyrimidin-7-yl)cyclohexan-1-ol], the IC50 was less than 10 nM against Mer tyrosine kinase and 100 to 1000 nM at Tyro3 tyrosine kinase.

`CCC[C@H](C)Nc1ncc2c(C3CCN(C(=O)[C@@H]4CCCNC4)CC3)cn([C@H]3CC[C@H](O)CC3)c2n1` [compound 23, (4-(7-((1R,4S)-4-hydroxycyclohexyl)-2-(((S)-pentan-2-yl)amino)-7H-pyrrolo[2,3-d]pyrimidin-5-yl)piperidin-1-yl)((R)-piperidin-3-yl)methanone]: the IC50 is less than 10 nM at Mer tyrosine kinase and 10 to 100 nM against Tyro3 tyrosine kinase.

On to `Cc1cc(C(=O)N2CCC(c3cn([C@H]4CC[C@H](O)CC4)c4nc(NCCCCO)ncc34)CC2)cc(C)n1` [compound 100, (2,6-dimethylpyridin-4-yl)(4-(2-((4-hydroxybutyl)amino)-7-((1r,4r)-4-hydroxycyclohexyl)-7H-pyrrolo[2,3-d]pyrimidin-5-yl)piperidin-1-yl)methanone], for which the IC50 is less than 10 nM against Mer tyrosine kinase and 1000 to 30000 nM on Tyro3 tyrosine kinase.

`CCC[C@H](C)Nc1ncc2c(C3CCN(C(=O)c4cc(F)cc(F)c4)CC3)cn([C@H]3CC[C@H](O)CC3)c2n1` [compound 81, (3,5-difluorophenyl)(4-(7-((1R,4S)-4-hydroxycyclohexyl)-2-(((S)-pentan-2-yl)amino)-7H-pyrrolo[2,3-d]pyrimidin-5-yl)piperidin-1-yl)methanone]: the IC50 at Mer tyrosine kinase was less than 10 nM; on Tyro3 tyrosine kinase it was 100 to 1000 nM.

Regarding `CCC[C@H](C)Nc1ncc2c(C3CCN(C(=O)C4CNC4)CC3)cn([C@H]3CC[C@H](O)CC3)c2n1` [compound 13, Azetidin-3-yl(4-(7-((1R,4S)-4-hydroxycyclohexyl)-2-(((S)-pentan-2-yl)amino)-7H-pyrrolo[2,3-d]pyrimidin-5-yl)piperidin-1-yl)methanone], the results for the IC50 on Mer tyrosine kinase and against Tyro3 tyrosine kinase were less than 10 nM and 10 to 100 nM, respectively.

For the compound `CCC[C@H](C)Nc1ncc2c(C3CCN(C(=O)c4cc(C)nc(C)c4)CC3)cn([C@H]3CC[C@H](N)CC3)c2n1` [compound 95, (4-(7-((1R,4S)-4-aminocyclohexyl)-2-(((S)-pentan-2-yl)amino)-7H-pyrrolo[2,3-d]pyrimidin-5-yl)piperidin-1-yl)(2,6-dimethylpyridin-4-yl)methanone], the figures for the IC50 against Mer tyrosine kinase and against Tyro3 tyrosine kinase were less than 10 nM and 10 to 100 nM, respectively.

For the compound `CCC[C@H](C)Nc1ncc2c(C3CCN(C(=O)c4nccs4)CC3)cn([C@H]3CC[C@H](O)CC3)c2n1` [compound 57, (4-(7-((1R,4S)-4-hydroxycyclohexyl)-2-(((S)-pentan-2-yl)amino)-7H-pyrrolo[2,3-d]pyrimidin-5-yl)piperidin-1-yl)(thiazol-2-yl)methanone], the values for the IC50 on Mer tyrosine kinase and on Tyro3 tyrosine kinase were less than 10 nM and 100 to 1000 nM, respectively.

Take `CCC[C@H](C)Nc1ncc2c(C3CCN(C4CCN(C)CC4)CC3)cn([C@H]3CC[C@H](O)CC3)c2n1` [compound 52, (1S,4R)-4-(5-(1′-methyl-[1,4′-bipiperidin]-4-yl)-2-(((S)-pentan-2-yl)amino)-7H-pyrrolo[2,3-d]pyrimidin-7-yl)cyclohexan-1-ol]: the results for the IC50 at Mer tyrosine kinase and against Tyro3 tyrosine kinase were less than 10 nM and 10 to 100 nM, respectively.

Turning to `Cc1cc(C(=O)N2CCC(c3cn([C@H]4CC[C@H](O)CC4)c4nc(NCCC5CC5)ncc34)CC2)cc(C)n1` [compound 72, (4-(2-((2-cyclopropylethyl)amino)-7-((1R,4R)-4-hydroxycyclohexyl)-7H-pyrrolo[2,3-d]pyrimidin-5-yl)piperidin-1-yl)(2,6-dimethylpyridin-4-yl)methanone], the figures for the IC50 against Mer tyrosine kinase and against Tyro3 tyrosine kinase were less than 10 nM and 100 to 1000 nM, respectively.

Consider `CCC[C@H](C)Nc1ncc2c(C3CCN(C(=O)[C@@H]4CCCCN4)CC3)cn([C@H]3CC[C@H](O)CC3)c2n1` [compound 19, (4-(7-((1R,4S)-4-hydroxycyclohexyl)-2-(((S)-pentan-2-yl)amino)-7H-pyrrolo[2,3-d]pyrimidin-5-yl)piperidin-1-yl)((S)-piperidin-2-yl)methanone], for which the half-inhibitory concentration (IC50) is less than 10 nM against Mer tyrosine kinase and 10 to 100 nM on Tyro3 tyrosine kinase.

On to `CCC[C@H](C)Nc1ncc2c(C3CCN(C(=O)c4ccccc4)CC3)cn([C@H]3CC[C@H](O)CC3)c2n1` [compound 30, (4-(7-((1R,4S)-4-hydroxycyclohexyl)-2-(((S)-pentan-2-yl)amino)-7H-pyrrolo[2,3-d]pyrimidin-5-yl)piperidin-1-yl)(phenyl)methanone], for which the results for the IC50 against Mer tyrosine kinase and against Tyro3 tyrosine kinase were less than 10 nM and 10 to 100 nM, respectively.

On to `CCC[C@H](C)Nc1ncc2c(C3CCN(S(=O)(=O)C4CCN(C)CC4)CC3)cn([C@H]3CC[C@H](O)CC3)c2n1` [compound 1, (1S,4R)-4-(5-(1-((1-methylpiperidin-4-yl)sulfonyl)piperidin-4-yl)-2-(((S)-pentan-2-yl)amino)-7H-pyrrolo[2,3-d]pyrimidin-7-yl)cyclohexan-1-ol], for which the IC50 is less than 10 nM against Mer tyrosine kinase and 10 to 100 nM against Tyro3 tyrosine kinase.

`CCC[C@H](C)Nc1ncc2c(C3CCN(C(=O)c4cc(C)nc(C)c4)CC3)cn([C@H]3CC[C@H](C(F)F)CC3)c2n1` [compound 88, (4-(7-((1R,4S)-4-(difluoromethyl)cyclohexyl)-2-(((S)-pentan-2-yl)amino)-7H-pyrrolo[2,3-d]pyrimidin-5-yl)piperidin-1-yl)(2,6-dimethylpyridin-4-yl)methanone]: the IC50 on Mer tyrosine kinase was less than 10 nM; against Tyro3 tyrosine kinase it was 100 to 1000 nM.

In the case of `Cc1cc(C(=O)N2CCC(c3cn([C@H]4CC[C@H](O)CC4)c4nc(NCCCC(F)(F)F)ncc34)CC2)cc(C)n1` [compound 101, (2,6-dimethylpyridin-4-yl)(4-(7-((1r,4r)-4-hydroxycyclohexyl)-2-((4,4,4-trifluorobutyl)amino)-7H-pyrrolo[2,3-d]pyrimidin-5-yl)piperidin-1-yl)methanone], the IC50 on Mer tyrosine kinase was less than 10 nM; on Tyro3 tyrosine kinase it was 1000 to 30000 nM.

Regarding `CCC[C@H](C)Nc1ncc2c(C3CCN(C(=O)c4ncc[nH]4)CC3)cn([C@H]3CC[C@H](O)CC3)c2n1` [compound 62, (4-(7-((1r,4S)-4-hydroxycyclohexyl)-2-(((S)-pentan-2-yl)amino)-7H-pyrrolo[2,3-d]pyrimidin-5-yl)piperidin-1-yl)(1H-imidazol-2-yl)methanone], the IC50 at Mer tyrosine kinase was less than 10 nM; on Tyro3 tyrosine kinase it was 100 to 1000 nM.

`CCC[C@H](C)Nc1ncc2c(C3CCN(C(=O)C4CCNC4)CC3)cn([C@H]3CC[C@H](O)CC3)c2n1` (stereo partly drawn) [compound 17, (4-(7-((1R,4S)-4-hydroxycyclohexyl)-2-(((S)-pentan-2-yl)amino)-7H-pyrrolo[2,3-d]pyrimidin-5-yl)piperidin-1-yl)(pyrrolidin-3-yl)methanone]: the IC50 against Mer tyrosine kinase was less than 10 nM; against Tyro3 tyrosine kinase it was 10 to 100 nM.

Take `CCC[C@H](C)Nc1ncc2c(C3CCN(C(=O)c4ccc(Cl)cc4)CC3)cn([C@H]3CC[C@H](O)CC3)c2n1` [compound 84, (4-chlorophenyl)(4-(7-((1R,4S)-4-hydroxycyclohexyl)-2-(((S)-pentan-2-yl)amino)-7H-pyrrolo[2,3-d]pyrimidin-5-yl)piperidin-1-yl)methanone]: the results for the IC50 against Mer tyrosine kinase and against Tyro3 tyrosine kinase were less than 10 nM and 100 to 1000 nM, respectively.

As to `CCC[C@H](C)Nc1ncc2c(C3CCN(S(=O)(=O)CCOC)CC3)cn([C@H]3CC[C@H](O)CC3)c2n1` [compound 4, (1S,4R)-4-(5-(1-((2-methoxyethyl)sulfonyl)piperidin-4-yl)-2-(((S)-pentan-2-yl)amino)-7H-pyrrolo[2,3-d]pyrimidin-7-yl)cyclohexan-1-ol], the IC50 on Mer tyrosine kinase was less than 10 nM; against Tyro3 tyrosine kinase it was 100 to 1000 nM.

As to `CCC[C@H](C)Nc1ncc2c(C3CCN(C(=O)C4CCCN4)CC3)cn([C@H]3CC[C@H](O)CC3)c2n1` (stereo partly drawn) [compound 15, 7-((1R,4S)-4-hydroxycyclohexyl)-2-(((S)-pentan-2-yl)amino)-5-(1-prolylpiperidin-4-yl)-7H-pyrrolo[2,3-d]pyrimidine], the IC50 on Mer tyrosine kinase was less than 10 nM; against Tyro3 tyrosine kinase, 10 to 100 nM.

As for `CC[C@H]1C[C@@H]1Nc1ncc2c(C3CCN(C(=O)c4ccncc4)CC3)cn([C@H]3CC[C@H](O)CC3)c2n1` [compound 42, (4-(2-(((1S,2S)-2-ethylcyclopropyl)amino)-7-((1R,4S)-4-hydroxycyclohexyl)-7H-pyrrolo[2,3-d]pyrimidin-5-yl)piperidin-1-yl)(pyridin-4-yl)methanone], the IC50 was less than 10 nM at Mer tyrosine kinase and 100 to 1000 nM on Tyro3 tyrosine kinase.

In the case of `CCC[C@H](C)Nc1ncc2c(C3CCN(C(=O)c4ccc(NC)cc4)CC3)cn([C@H]3CC[C@H](O)CC3)c2n1` [compound 83, (4-(7-((1R,4S)-4-hydroxycyclohexyl)-2-(((S)-pentan-2-yl)amino)-7H-pyrrolo[2,3-d]pyrimidin-5-yl)piperidin-1-yl)(4-(methylamino)phenyl)methanone], the IC50 at Mer tyrosine kinase is less than 10 nM; on Tyro3 tyrosine kinase it was 10 to 100 nM.

Consider `CCC[C@H](C)Nc1ncc2c(C3CCN(C(=O)C4CN(C)C4)CC3)cn([C@H]3CC[C@H](O)CC3)c2n1` [compound 14, (4-(7-((1R,4S)-4-hydroxycyclohexyl)-2-(((S)-pentan-2-yl)amino)-7H-pyrrolo[2,3-d]pyrimidin-5-yl)piperidin-1-yl)(1-methylazetidin-3-yl)methanone], for which the values for the IC50 against Mer tyrosine kinase and at Tyro3 tyrosine kinase were less than 10 nM and 10 to 100 nM, respectively.

`CCC[C@H](C)Nc1ncc2c(C3CCN(C(=O)[C@H]4CCCNC4)CC3)cn([C@H]3CC[C@H](O)CC3)c2n1` [compound 24, (4-(7-((1R,4S)-4-hydroxycyclohexyl)-2-(((S)-pentan-2-yl)amino)-7H-pyrrolo[2,3-d]pyrimidin-5-yl)piperidin-1-yl)((S)-piperidin-3-yl)methanone]: the figures for the IC50 against Mer tyrosine kinase and on Tyro3 tyrosine kinase were less than 10 nM and 10 to 100 nM, respectively.

In the case of `CCCCNc1ncc2c(C3CC4CCC(C3)N4)cn([C@H]3CC[C@H](O)CC3)c2n1` (stereo partly drawn) [compound 12, (1R,4R)-4-(5-((1R,3S,5S)-8-azabicyclo[3.2.1]octan-3-yl)-2-(butylamino)-7H-pyrrolo[2,3-d]pyrimidin-7-yl)cyclohexan-1-ol], the IC50 against Tyro3 tyrosine kinase was 1000 to 30000 nM.
